target: T1, MAGL (Homo sapiens, UniProt Q99685); test: 2-AG assay (MAGL inhibitory activity, hydrolysis of 2-arachidonoylglycerol followed by mass spectrometry); format: biochemical; conditions: 50 pM MAGL, 8 μM 2-arachidonoylglycerol, 15 min pre-incubation, 30 min incubation at RT
T1 sequence (Q99685 1-303): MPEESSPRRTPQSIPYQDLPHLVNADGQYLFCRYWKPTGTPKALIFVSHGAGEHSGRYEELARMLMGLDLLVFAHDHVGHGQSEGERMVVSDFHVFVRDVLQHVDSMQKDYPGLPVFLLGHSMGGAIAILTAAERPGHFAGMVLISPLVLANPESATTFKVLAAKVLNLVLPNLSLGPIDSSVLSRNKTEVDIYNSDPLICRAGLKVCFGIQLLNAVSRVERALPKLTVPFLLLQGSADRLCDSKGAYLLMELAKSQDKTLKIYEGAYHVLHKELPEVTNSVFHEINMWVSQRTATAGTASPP
Experimental: Compounds were profiled for MAGL inhibitory activity by determining the enzymatic activity by following the hydrolysis of the natural substrate 2-arachidonoylglycerol (2-AG) resulting in arachidonic acid, which can be followed by mass spectrometry. This assay is hereinafter abbreviated “2-AG assay”.
The 2-AG assay was carried out in 384 well assay plates (PP, Greiner Cat#784201) in a total volume of 20 μL. Compound dilutions were made in 100% DMSO (VWR Chemicals 23500.297) in a polypropylene plate in 3-fold dilution steps to give a final concentration range in the assay from 12.5 μM to 0.8 pM. […] compound dilutions (100% DMSO) were added to 9 μL MAGL in assay buffer (50 mM TRIS (GIBCO, 15567-027), 1 mM EDTA (Fluka, 03690-100 mL), 0.01% (v/v) Tween. After shaking, the plate was incubated for 15 min at RT. To start the reaction, 10 μL 2-arachidonoylglycerol in assay buffer was added. The final concentrations in the assay was 50 pM MAGL and 8 μM 2-arachidonoylglyerol. After shaking and 30 min incubation at RT, the reaction was quenched by the addition of […] of ACN containing 4 μM of d8-arachidonic acid. The amount of arachidonic acid was traced by an online SPE system (Agilent Rapidfire) coupled to a triple quadrupole mass spectrometer (Agilent 6460). A C18 SPE cartridge (G9205A) was used in an ACN/water liquid setup. The mass spectrometer was operated in negative electrospray mode following the mass transitions 303.1→259.1 for arachidonic acid and 311.1→267.0 for d8-arachidonic acid. The activity of the compounds was calculated based on the ratio of intensities [arachidonic acid/d8-arachidonic acid].

| Compound | IC50 |
| --- | --- |
| O=C(CCOCCOCCNc1ccc([N+](=O)[O-])c2nonc12)NCCOc1cccc(C(c2ccccc2)C2CCN(C(=O)N3CC[C@@H]4OCC(=O)N[C@@H]4C3)CC2)c1 (single isomer, unassigned) [Example 12, N-[2-[3-[(S or R)-[1-[(4aR,8aS)-3-Oxo-4,4a,5,7,8,8a-hexahydropyrido[4,3-b][1,4]oxazine-6-carbonyl]-4-piperidyl]-phenyl-methyl]phenoxy]ethyl]-3-[2-[2-[(4-nitro-2,1,3-benzoxadiazol-7-yl)amino]ethoxy]ethoxy]propanamide] | 0.5 nM |
| NCCOc1cccc(C(c2ccccc2)C2CCN(C(=O)N3CC[C@@H]4OCC(=O)N[C@@H]4C3)CC2)c1 (single isomer, unassigned) [Example 7, (4aR,8aS)-6-[4-[(R or S)-[3-(2-Aminoethoxy)phenyl]-phenyl-methyl]piperidine-1-carbonyl]-4,4a,5,7,8,8a-hexahydropyrido[4,3-b][1,4]oxazin-3-one] | 48.5 nM |
| CC(C)(C)OC(=O)NCCOc1cccc(C(c2ccccc2)C2CCN(C(=O)N3CC[C@@H]4OCC(=O)N[C@@H]4C3)CC2)c1 (single isomer, unassigned) [Example 4, tert-Butyl N-[2-[3-[(R or S)-[1-[(4aR,8aS)-3-oxo-4,4a,5,7,8,8a-hexahydropyrido[4,3-b][1,4]oxazine-6-carbonyl]-4-piperidyl]-phenyl-methyl]phenoxy]ethyl]carbamate] | 0.3 nM |
| O=C1CO[C@H]2CCN(C(=O)N3CCC(=C(c4ccccc4)c4cccc(OCCNc5ccc([N+](=O)[O-])c6nonc56)c4)CC3)C[C@H]2N1 [Example 24] | 5.5 nM |
| O=C(CCOCCNc1ccc([N+](=O)[O-])c2nonc12)NCCOc1cccc(C(c2ccccc2)C2CCN(C(=O)N3CCC4OCC(=O)NC4C3)CC2)c1 (single isomer, unassigned) [Example 17, N-[2-[3-[(S or R)-11-1(4aR,8aS)-3-Oxo-4,4a,5,7,8,8a-hexahydropyrido[4,3-b][1,4]oxazine-6-carbonyl]-4-piperidyl]-phenyl-methyl]phenoxy]ethyl]-3-[2-[(4-nitro-2,1,3-benzoxadiazol-7-yl)amino]ethoxy]propanamide] | 0.7 nM |
| CC(C)(C)OC(=O)NCCOCCOCCOCCC(=O)NCCOc1cccc(C(c2ccccc2)C2CCN(C(=O)N3CC[C@@H]4OCC(=O)N[C@@H]4C3)CC2)c1 (single isomer, unassigned) [Example 19, tert-Butyl N-[2-[2-[2-[3-[2-[3-[(S or R)-[1-[(4aR,8aS)-3-oxo-4,4a,5,7,8,8a-hexahydropyrido[4,3-b][1,4]oxazine-6-carbonyl]-4-piperidyl]-phenyl-methyl]phenoxy]ethylamino]-3-oxo-propoxy]ethoxy]ethoxy]ethyl]carbamate] | 2 nM |
| NCCOCCOCCOCCC(=O)NCCOc1cccc([C@H](c2ccccc2)C2CCN(C(=O)N3CC[C@@H]4OCC(=O)N[C@@H]4C3)CC2)c1 (single isomer, unassigned) [Example 20, N-[2-[3-[(S or R)-[1-1(4aR,8aS)-3-Oxo-4,4a,5,7,8,8a-hexahydropyrido[4,3-b]11,4]oxazine-6-carbonyl]-4-piperidyfl-phenyl-methyl]phenoxy]ethyl]-3-[2-[2-(2-aminoethoxy)ethoxy]ethoxy]propanamide] | 11.4 nM |
| CC(C)(C)OC(=O)NCCOCCOCCC(=O)NCCOc1cccc(C(c2ccccc2)C2CCN(C(=O)N3CC[C@@H]4OCC(=O)N[C@@H]4C3)CC2)c1 (single isomer, unassigned) [Example 9, tert-Butyl N-[2-[2-[3-[2-[3-[(R or S)-[1-[(4aR,8aS)-3-oxo-4,4a,5,7,8,8a-hexahydropyrido[4,3-b][1,4]oxazine-6-carbonyl]-4-piperidyl]-phenyl-methyl]phenoxy]ethylamino]-3-oxo-propoxy]ethoxy]ethyl]carbamate] | 2.6 nM |
| CC(C)(C)OC(=O)NCCOCCOCCC(=O)NCCOc1cccc([C@H](c2ccccc2)C2CCN(C(=O)N3CC[C@@H]4OCC(=O)N[C@@H]4C3)CC2)c1 (single isomer, unassigned) [Example 8, tert-Butyl N-[2-[2-[3-[2-[3-[(S or R)-11-1(4aR,8aS)-3-oxo-4,4a,5,7,8,8a-hexahydropyrido[4,3-b][1,4]oxazine-6-carbonyl]-4-piperidyl]-phenyl-methyl]phenoxy]ethylamino]-3-oxo-propoxy]ethoxy]ethyl]carbamate] | 1.5 nM |
| CC(C)(C)OC(=O)NCCOc1ccc(C(=C2CCN(C(=O)N3CC[C@@H]4OCC(=O)N[C@@H]4C3)CC2)c2ccccc2)cc1 [Example 25, tert-Butyl (2-(4-((1-((4aR,8aS)-3-oxooctahydro-2H-pyrido[4,3-b][1,4]oxazine-6-carbonyl)piperidin-4-ylidene)(phenyl)methyl)phenoxy)ethyl)carbamate] | 13 nM |
| CC(C)(C)OC(=O)NCCOc1cccc(C(=C2CCN(C(=O)N3CC[C@@H]4OCC(=O)N[C@@H]4C3)CC2)c2ccccc2)c1 [Example 23, tert-Butyl (2-(3-((1-((4aR,8aS)-3-oxooctahydro-2H-pyrido[4,3-b][1,4]oxazine-6-carbonyl)piperidin-4-ylidene)(phenyl)methyl)phenoxy)ethyl)carbamate] | 5.8 nM |

Now from value to molecule:

| IC50 | Compound |
| --- | --- |
| 18.1 nM | NCCOCCC(=O)NCCOc1cccc([C@@H](c2ccccc2)C2CCN(C(=O)N3CC[C@@H]4OCC(=O)N[C@@H]4C3)CC2)c1 (single isomer, unassigned) [Example 16, N-[2-[3-[(R or S)-[1-1(4aR,8aS)-3-Oxo-4,4a,5,7,8,8a-hexahydropyrido[4,3-b][1,4]oxazine-6-carbonyl]-4-piperidyl]phenyl-methyl]phenoxy]ethyl]-3-(2-aminoethoxy)propanamide] |
| 0.2 nM | CC(C)(C)OC(=O)NCCOc1cccc(C(c2ccccc2)C2CCN(C(=O)N3CC[C@@H]4OCC(=O)N[C@@H]4C3)CC2)c1 (single isomer, unassigned) [Example 5, tert-Butyl N-[2-[3-[(S or R)-[1-[(4aR,8aS)-3-oxo-4,4a,5,7,8,8a-hexahydropyrido[4,3-b][1,4]oxazine-6-carbonyl]-4-piperidyl]-phenyl-methyl]phenoxy]ethyl]carbamate] |
| 2.1 nM | O=C(CCOCCOCCNc1ccc([N+](=O)[O-])c2nonc12)NCCOc1cccc(C(c2ccccc2)C2CCN(C(=O)N3CC[C@@H]4OCC(=O)N[C@@H]4C3)CC2)c1 (stereo partly drawn) [Example 3, 3-(2-(2-((7-Nitrobenzo[c][1,2,5]oxadiazol-4-yl)amino)ethoxy)ethoxy)-N-(2-(3-((1-((4aR,8aS)-3-oxooctahydro-2H-pyrido[4,3-b][1,4]oxazine-6-carbonyl)piperidin-4-yl)(phenyl)methyl)phenoxy)ethyl)propanamide] |
| 1 nM | O=C(CCOCCOCCOCCNc1ccc([N+](=O)[O-])c2nonc12)NCCOc1cccc(C(c2ccccc2)C2CCN(C(=O)N3CC[C@@H]4OCC(=O)N[C@@H]4C3)CC2)c1 (stereo partly drawn) [Example 1, 3-(2-(2-(2-((7-Nitrobenzo[c][1,2,5]oxadiazol-4-yl)amino)ethoxy)ethoxy)ethoxy)-N-(2-(3-((1-((4aR,8aS)-3-oxooctahydro-2H-pyrido[4,3-b][1,4]oxazine-6-carbonyl)piperidin-4-yl)(phenyl)methyl)phenoxy)ethyl)propanamide] |
| 3.2 nM | CC(C)(C)OC(=O)NCCOCCC(=O)NCCOc1cccc([C@@H](c2ccccc2)C2CCN(C(=O)N3CC[C@@H]4OCC(=O)N[C@@H]4C3)CC2)c1 (single isomer, unassigned) [Example 15, tert-Butyl N-[2-[3-[2-[3-[(R or S)-[1-1(4aR,8aS)-3-oxo-4,4a,5,7,8,8a-hexahydropyrido[4,3-b][1,4]oxazine-6-carbonyl]-4-piperidyl]-phenyl-methyl]phenoxy]ethylamino]-3-oxo-propoxy]ethyl]carbamate] |
| 7.8 nM | NCCOCCOCCC(=O)NCCOc1cccc(C(c2ccccc2)C2CCN(C(=O)N3CC[C@@H]4OCC(=O)N[C@@H]4C3)CC2)c1 (single isomer, unassigned) [Example 10, N-[2-[3-[(R or S)-[1-[(4aR,8aS)-3-Oxo-4,4a,5,7,8,8a-hexahydropyrido[4,3-b][1,4]oxazine-6-carbonyl]-4-piperidyl]-phenyl-methyl]phenoxy]ethyl]-3-[2-(2-aminoethoxy)ethoxy]propanamide] |

From patent US20220220373A1, “FLUORESCENT PROBES FOR MONOACYLGLYCEROL LIPASE (MAGL)” (Hoffmann-La Roche Inc., priority 2019, published 2022)
